Laboratory results published in patent publication US20020091086A1, “Peptides that block viral infectivity and methods of use thereof” (priority 1999, published 2002).
Peptide text beside a SMILES is read from it.

Key:
Jurkat-tat III = test: cytotoxicity, trypan-blue dye exclusion and cell counting; conditions: 40 mM, 3 days of culture
Method: (§1) The in vitro 50% cytotoxic concentrations (CC50) of various cell lines was also assessed. Accordingly, different concentrations of GPG-NH2, up to 40 mM, was supplemented into the medium culture of T-cell lines HUT78, H9, CEM-SS, MT-2 and (non) induced ACH-2, as well as, the macrophage derived cell lines […], THP-1 and (non) induced U-1 cells. After 3 days of incubation, the number of cells were counted.

HUT78 = test: as above; conditions: 40 mM, 3 days of culture
Method: as §1

MT-2 = test: as above; conditions: 40 mM, 3 days of culture
Method: as §1

HIV-1 = conditions: Experiment 6; Day 7 HIV-1; 100 μM; HUT78 cells
Method: In experiment 6 (Table 7 and FIG. 1), approximately 200,000 HUT78 cells were infected with HIV-1 at 25 TCID50 to test the inhibitory effect of GPG-NH2, RQG-NH2, KQG-NH2, ALG-NH2, GVG-NH2, VGG-NH2, ASG-NH2, SLG-NH2, and SPT-NH2. The HUT cells were resuspended in lml of RPMI 1640 medium supplemented with 10% (v/v) heat-inactivated fetal bovine serum (FBS, GIBCO), penicillin (100 u/ml), streptomycin (100 u/ml) and Polybrene (Sigma, 2 μg/ml) with or without the presence of the different small peptides (100 μM) mentioned above. Thereafter, the HIV-1 virus was added at 25 TCID50 in a volume of 20 μl. Cells were incubated with the virus at 37° C. for one hour and, subsequently, the cells were pelleted at 170×g for seven minutes. The cells were then washed three times in RPMI medium without peptides at room temperature by cell sedimentation at 170×g for seven minutes, as above. After the final wash, the cells were resuspended in RPMI culture medium containing the peptides in 24-well plate (Costar corporation) and were kept at 37° C. in 5% CO2 with humidity. Culture supernatants were collected when medium was changed at day 4, 7, and 11 post infection and viral p24 production was monitored by using an HIV-1 p24 ELISA kit (Abbott Laboratories, North Chicago, USA).

[1] = acid stability in 50 mM KCl and 0.1M HCl by TLC; type: physicochemical; conditions: up to 24 hours
Method: Because an oral administration of a pharmaceutical comprising a small peptide is desired, the acid stability of small peptides was assessed by incubating ^14C-labelled GPG-NH2 in a solution of 50 mM KCl and 0.1M HCl for various time periods. After acid hydrolysis, the radiolabeled tripeptide was analyzed by thin layer chromatography (TLC) and the HPTLC plate was developed with 25% methanol: 25%isopropanol: 15% butanol: 35% (0.1N HOAc and 0.1N NaOAc).

GPG-deleted mutant mp8 = test: infectivity in MT-2 cells, p24 ELISA, GPG-deleted mutant mp8; type: cell-based, HIV-1
Method: Accordingly, the ability of GPG-NH2 to inhibit the infectivity of wild-type and V3-loop deletion mutants (GPG domain) in MT-2 cells was determined. In these experiments, approximately 200,000 MT-2 cells were infected with HIV-1Bru wild-type and GPG-deleted mutants mp8 and mp10 at 25 TCID50 to test the inhibitory effect of GPG-NH2 The MT-2 cells were resuspended in 1 ml of RPMT 1640 medium supplemented with 10% (v/v) heat-inactivated fetal bovine serum (FBS, GIBCO), penicillin (100μ/ml), streptomycin (100μ/ml) and Polybrene (Sigma 2 μg/ml) with or without the presence of GPG-NH2 at concentration 20 of μM and 100 μM. Thereafter, viruses were added at 25 TCID50 in a volume of 20-30 μl. Cells were incubated with virus at 37° C. for 16 hr then loosely pelleted by centrifugation at 170×g for 7 minutes. The cells were then washed three times in RPMI medium without peptides at room temperature by cell sedimentation at 170×g for 7 minutes as above. After the final wash, the cells were resuspended in RPMI culture medium in 24-well plate (Costar corporation) then kept at 37° C. in 5% CO2 with humidity. Culture supernatants were collected when medium was changed at day 4, 7, 11 and 14 post infection. To monitor the replication of virus, HIV-1 p24 antigen protein in the supernatants from day 7 and 14 was assayed by a ELISA kit (Abbott Laboratories) which has a linear dose-response range from 20 pg to 640 pg of p24 per ml and the p24 amount can be determined with aid of the regression line.

[2] = four week oral toxicology study in rats; type: in vivo; conditions: orally up to 1 g per kilo bodyweight per day, twenty eight days
Method: In this example, the results from several in vivo toxicology studies on small peptides administered in large doses to rodents are presented. In a first experiment, a large single dose of small peptide was delivered to mice and the toxic effects were analyzed. […] In a second experiment, several doses of varying amounts of a small peptide were delivered to mice for almost three weeks. Groups of mice (five mice in each group) were given intraperitoneal injections of GPG-NH2 (0.01, 0.1 and 1 g per kilo bodyweight and day, respectively) starting at an age of 6 days. Daily injections were continued for 18 days. […] In a similar experiment, a four week toxicology study of GPG-NH2 was performed by Scantox A/S in Denmark. GPG-NH2 was given orally to rats at doses up to 1 g per kilo bodyweight per day for twenty eight days.

recombinant gp120 = target: T1, recombinant gp120 (Human immunodeficiency virus type 1 group M subtype B, UniProt P03375); test: dialysis-based binding assay with 14C-GPG-NH2, gp120; set-up: species or system HIV-1; conditions: dialysis 2 days at 4° C. against 27.5 μM 14C-GPG-NH2; buffer 1.816
T1 construct: recombinant proteins p24 and gp120 (gifts from the AIDS program, NCIB); purchased AIDS program, NCIB (gift, not bought)
Method: A dialysis-based binding assay was conducted using a dialysis membrane with a pore size of less than 10 kD. (Slide-A-Lyzer, Pierce). Fifty microliters of a 10 μM stock of the recombinant proteins p24 and gp120 (gifts from the AIDS program, NCIB) and BSA (Sigma) were introduced into separate dialysis membranes and the proteins were dialyzed at 4° C. for 2 days against a 500 ml solution composed of 150 mM NaCl and 50 mM Tris-HCl, pH 7.4 buffer and 27.5 μM of ^14C-GPG-NH2 (Amersham Ltd. UK). Subsequently, ten or five microliter aliquots of the dialyzed p24, gp120, and BSA were removed and mixed with 3 ml of ReadySafe (Beckman) in a scintillation vial. The C^14 was then detected by scintillation counting.

For NCC(=O)N1CCC[C@H]1C(=O)NCC(N)=O [GPG-NH2, glycyl-prolyl-glycine amide] (H-Gly-Pro-Gly-NH2), the “inhibition of cell growth” value (Jurkat-tat III) was ~40%, the “inhibition of cell growth” value (HUT78) was ~40% and the “inhibition of cell growth” value (MT-2) was ~40%. The “p24” value (HIV-1) was 560 pg/mL, the “reduction (%)” value (HIV-1) was 97% and the “TLC mobility after acid exposure” value [1] was “did not affect the mobility”. The p24 (GPG-deleted mutant mp8; GPG 20 μM, Day 7) was 2420 pg/mL, the reduction (%) (GPG-deleted mutant mp8; GPG 20 μM, Day 7) was 24% and the p24 (GPG-deleted mutant mp8; GPG 20 μM, Day 14) was 69100 pg/mL. The reduction (%) (GPG-deleted mutant mp8; GPG 20 μM, Day 14) was 53%, the p24 (GPG-deleted mutant mp8; GPG 100 μM, Day 7) was 208 pg/mL and the reduction (%) (GPG-deleted mutant mp8; GPG 100 μM, Day 7) was 93%. For the same compound, the p24 (GPG-deleted mutant mp8; GPG 100 μM, Day 14) was 7410 pg/mL, the reduction (%) (GPG-deleted mutant mp8; GPG 100 μM, Day 14) was 95% and the signs of toxicity [2] was “No signs of toxicity”. For the same compound, the “radioactive GPG-NH2 associated with gp120” value (recombinant gp120) was 1.745 μCi/ml.
